Test systems include K-562 leukemia; HCT-15 colon; NCI-H23 lung; CAKI-1 renal; HL-60(TB) leukemia; SNB-19 CNS; NCI-H226 lung; OVCAR-4 ovarian; A549 NSCLC; SF-268 CNS.
Assay in all cases: NCI anticancer screen, dose series, 48 h

Several values for one entry are separate records, joined by “and”; a condition that tells them apart may be missing. Equal values may be shown once.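 Cells were grown in 96-well plates and exposed to each compound for 48 hours at five concentrations; endpoints were interpolated linearly between bracketing concentrations, or set to the highest concentration if not reached. Abbreviation: GI50, concentration required for 50% inhibition of growth. At the TGI there is no net growth.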

For the molecule `C/C=C/C=C/C1=NN(c2cccc(S(=O)(=O)O)c2)C2(C1)SCC(=O)N2c1nc2ccccc2s1` (centres undefined), the TGI with K-562 leukemia, with HCT-15 colon, in the assay with NCI-H23 lung, in the assay with CAKI-1 renal, with HL-60(TB) leukemia and in the assay with SNB-19 CNS was greater than 100 µM each time. Besides, the TGI with NCI-H226 lung, in the assay with OVCAR-4 ovarian, in the assay with A549 NSCLC and with SF-268 CNS was greater than 100 µM in each case.
Consider `CN(C)CCCNC(=O)c1cc(NC(=O)c2cc(NC(=O)c3cc(NC(=O)CCCn4ccc(CO)c4CO)cn3C)cn2C)cn1C`, for which the TGI with K-562 leukemia, in the assay with HCT-15 colon, in the assay on NCI-H23 lung, in the assay on CAKI-1 renal, with HL-60(TB) leukemia and with SNB-19 CNS was greater than 100 µM throughout. In addition, the TGI was 13.9 µM in the assay with NCI-H226 lung, greater than 100 µM with OVCAR-4 ovarian, 75.4 µM with A549 NSCLC and greater than 100 µM in the assay on SF-268 CNS.
As for `C[C@H](CC[C@@H](O)C(C)(C)O)[C@H]1CC[C@@]2(C)[C@@H]3CC=C4[C@@H](CC[C@H](OC5OC(CO)C(O)C(O)C5O)C4(C)C)[C@]3(C)C(=O)C[C@]12C` (some centres undefined), the TGI was greater than 100 µM in the assay with K-562 leukemia; greater than 100 µM in the assay with HCT-15 colon; greater than 100 µM in the assay on NCI-H23 lung; greater than 100 µM with CAKI-1 renal; 75.8 µM in the assay with HL-60(TB) leukemia; greater than 100 µM in the assay with SNB-19 CNS. The TGI in the assay on NCI-H226 lung, in the assay with OVCAR-4 ovarian, in the assay with A549 NSCLC and in the assay on SF-268 CNS was greater than 100 µM each time.
For the molecule `Cc1ccc(S(=O)(=O)n2cc(-c3cnc(N)c(Br)n3)c3ccccc32)cc1`, the TGI in the assay with K-562 leukemia is greater than 100 µM; in the assay with HCT-15 colon it was greater than 100 µM; in the assay with NCI-H23 lung, 5.94 µM; in the assay on CAKI-1 renal it was greater than 100 µM; with HL-60(TB) leukemia it was 6.58 µM; in the assay with SNB-19 CNS it was greater than 46.1 µM. The TGI in the assay on NCI-H226 lung, with OVCAR-4 ovarian, in the assay with A549 NSCLC and in the assay on SF-268 CNS was greater than 100 µM in each case.
In the case of `O=C(c1ccc(Cl)cc1)N1N=C(c2ccc(Cl)cc2)CC1(O)c1cc(F)c(Cl)cc1Cl` (centres undefined), the TGI in the assay on K-562 leukemia was greater than 100 µM; in the assay with HCT-15 colon it was greater than 100 µM; with NCI-H23 lung, 73 µM; in the assay on CAKI-1 renal it was 39.6 µM; in the assay with HL-60(TB) leukemia, 87 µM; with SNB-19 CNS, greater than 100 µM. Besides, the TGI is greater than 100 µM in the assay on NCI-H226 lung, 51.5 µM with OVCAR-4 ovarian, greater than 100 µM with A549 NSCLC and greater than 100 µM in the assay on SF-268 CNS.
With `O=C(Nc1ccc2ccccc2c1)Nn1cnnc1`, the TGI in the assay on K-562 leukemia, in the assay on HCT-15 colon, in the assay with NCI-H23 lung, with CAKI-1 renal, in the assay with HL-60(TB) leukemia and in the assay on SNB-19 CNS was greater than 100 µM each time. For the same molecule, the TGI with NCI-H226 lung, in the assay on OVCAR-4 ovarian, in the assay with A549 NSCLC and in the assay on SF-268 CNS was greater than 100 µM throughout.
With `C=CCN1CC2CN=NC2(C#N)C1` (centres undefined), the TGI in the assay with K-562 leukemia, in the assay with HCT-15 colon, in the assay on NCI-H23 lung, in the assay with CAKI-1 renal, in the assay on HL-60(TB) leukemia and in the assay on SNB-19 CNS was greater than 100 µM in each case. The TGI in the assay with NCI-H226 lung, in the assay with OVCAR-4 ovarian, with A549 NSCLC and in the assay on SF-268 CNS was greater than 100 µM throughout.
With `Cc1cc(=O)c2c(O)c3c(O)cc(O)c4c5c(O)cc(O)c6c(O)c7c(=O)cc(C)c8c1c2c(c34)c(c65)c78`, the TGI in the assay on K-562 leukemia is greater than 100 µM; in the assay with HCT-15 colon, > 100 µM and 52 µM; in the assay with NCI-H23 lung, > 100 µM and 60.2 µM; in the assay with CAKI-1 renal it was greater than 100 µM; with HL-60(TB) leukemia it was > 100 µM and 30.7 µM; in the assay with SNB-19 CNS, greater than 100 µM. Moreover, the TGI is > 100 µM and 44.3 µM in the assay on NCI-H226 lung; greater than 100 µM in the assay with OVCAR-4 ovarian; greater than 100 µM with A549 NSCLC; greater than 100 µM in the assay with SF-268 CNS. In addition, the GI50 with HCT-15 colon was > 100 µM and 20.1 µM; with NCI-H23 lung it was > 100 µM and 23 µM; in the assay on HL-60(TB) leukemia it was 11.7 µM; in the assay with NCI-H226 lung, > 100 µM and 16.3 µM.
Regarding `Oc1c(I)cc(I)cc1CNCCCN(Cc1ccccn1)Cc1ccccn1`, the GI50 in the assay on K-562 leukemia is 1.71 µM; in the assay with HCT-15 colon it was 1.13 µM; with NCI-H23 lung it was 1.16 µM; in the assay with CAKI-1 renal, 0.896 µM; in the assay with HL-60(TB) leukemia, 1.08 µM; with SNB-19 CNS it was 1.49 µM. The GI50 in the assay on NCI-H226 lung was 0.902 µM; in the assay with OVCAR-4 ovarian it was 1.02 µM; in the assay on A549 NSCLC, 1.32 µM; in the assay on SF-268 CNS, 1.18 µM. Moreover, the TGI with K-562 leukemia was 50 µM; with HCT-15 colon, 2.79 µM; in the assay with NCI-H23 lung, 3.22 µM; in the assay with CAKI-1 renal it was 1.74 µM; in the assay with HL-60(TB) leukemia, 2.51 µM; in the assay on SNB-19 CNS, 5.5 µM. Also, the TGI in the assay with NCI-H226 lung came to 2 µM; in the assay with OVCAR-4 ovarian, 2.31 µM; in the assay on A549 NSCLC it was 3.82 µM; in the assay with SF-268 CNS it was 3.21 µM.
On to `Cc1ccccc1NC(=S)N=Nc1c(O)[nH]c2ccccc12`, for which the TGI in the assay with K-562 leukemia, with HCT-15 colon, with NCI-H23 lung, with CAKI-1 renal, in the assay with HL-60(TB) leukemia and in the assay on SNB-19 CNS was greater than 100 µM each time. Besides, the TGI with NCI-H226 lung is greater than 100 µM; in the assay with OVCAR-4 ovarian, greater than 100 µM; with A549 NSCLC, greater than 100 µM; in the assay with SF-268 CNS, 65.3 µM.
On to `O=C(NCCO)c1c(O)c2ccccc2[nH]c1=O`, for which the TGI in the assay with K-562 leukemia, in the assay with HCT-15 colon, in the assay with NCI-H23 lung, with CAKI-1 renal, in the assay on HL-60(TB) leukemia and in the assay on SNB-19 CNS was greater than 100 µM throughout. Further, the TGI in the assay with NCI-H226 lung, with OVCAR-4 ovarian, in the assay on A549 NSCLC and in the assay on SF-268 CNS was greater than 100 µM in each case.
Turning to `COC(=O)C[C@H](COCc1ccccc1)NC(=O)C[C@H](COCc1ccccc1)NC(=O)C[C@H](COCc1ccccc1)NC(=O)OC(C)(C)C`, the TGI with K-562 leukemia, with HCT-15 colon, with NCI-H23 lung, in the assay with CAKI-1 renal, with HL-60(TB) leukemia and in the assay with SNB-19 CNS was greater than 100 µM in each case. In addition, the TGI with NCI-H226 lung was greater than 100 µM; with OVCAR-4 ovarian it was 17.4 µM; with A549 NSCLC, greater than 100 µM; with SF-268 CNS, greater than 100 µM.
Regarding `O=c1c2cc(-c3ccccc3)cnc2sn1-c1ccc([N+](=O)[O-])cc1`, the TGI with K-562 leukemia, in the assay on HCT-15 colon, with NCI-H23 lung, in the assay with CAKI-1 renal, with HL-60(TB) leukemia and with SNB-19 CNS was greater than 100 µM each time. In addition, the TGI in the assay on NCI-H226 lung, with OVCAR-4 ovarian, in the assay on A549 NSCLC and in the assay on SF-268 CNS was greater than 100 µM each time.
Consider `Cc1nnc(N)nc1/C=C\c1cccs1`, for which the TGI with K-562 leukemia was 59.7 µM; with HCT-15 colon, 29.6 µM; in the assay with NCI-H23 lung, 55.1 µM; in the assay on CAKI-1 renal it was greater than 100 µM; with HL-60(TB) leukemia it was 31.7 µM; in the assay on SNB-19 CNS it was greater than 100 µM. Also, the TGI with NCI-H226 lung is 49.4 µM; with OVCAR-4 ovarian it was 74.2 µM; with A549 NSCLC, greater than 100 µM; in the assay with SF-268 CNS it was 37.8 µM.
As to `N=C(N)n1[nH]c2c(c1=O)CCC2`, the TGI in the assay on K-562 leukemia, with HCT-15 colon, in the assay on NCI-H23 lung, in the assay with CAKI-1 renal, with HL-60(TB) leukemia and in the assay on SNB-19 CNS was greater than 100 µM throughout. Further, the TGI in the assay with NCI-H226 lung, in the assay with OVCAR-4 ovarian, in the assay with A549 NSCLC and in the assay with SF-268 CNS was greater than 100 µM throughout.
On to `Cc1ccccc1NC(=S)N/N=C(/c1ccccc1)c1ccccn1`, for which the TGI was found to be 4.17 µM in the assay with K-562 leukemia; 15.8 µM in the assay with HCT-15 colon; 21.5 µM with NCI-H23 lung; 10.5 µM in the assay on CAKI-1 renal; 1.24 µM in the assay with HL-60(TB) leukemia; 16.5 µM with SNB-19 CNS. Besides, the TGI in the assay with NCI-H226 lung came to 1.66 µM; in the assay on OVCAR-4 ovarian it was 20.8 µM; in the assay with A549 NSCLC it was 11.8 µM; in the assay with SF-268 CNS, 14.8 µM.
Take `NCCCCNCCCN`: the TGI in the assay on K-562 leukemia is greater than 100 µM; in the assay on HCT-15 colon, greater than 100 µM; with NCI-H23 lung it was greater than 100 µM; with CAKI-1 renal, 3.1 µM; with HL-60(TB) leukemia, greater than 100 µM; in the assay with SNB-19 CNS it was greater than 100 µM. For the same molecule, the TGI was greater than 100 µM with NCI-H226 lung, 37.6 µM in the assay on OVCAR-4 ovarian, greater than 100 µM in the assay on A549 NSCLC and greater than 100 µM in the assay with SF-268 CNS.
For `CC(=O)Oc1ccc(OC(Oc2ccccc2)c2ccccc2)cc1` (centres undefined), the TGI in the assay with K-562 leukemia is greater than 100 µM; in the assay on HCT-15 colon, greater than 100 µM; with NCI-H23 lung, 47.6 µM; in the assay on CAKI-1 renal it was 55.7 µM; in the assay on HL-60(TB) leukemia, 41.8 µM; with SNB-19 CNS it was 77.5 µM. For the same molecule, the TGI in the assay on NCI-H226 lung is 69.7 µM; in the assay with OVCAR-4 ovarian, greater than 100 µM; in the assay with A549 NSCLC, greater than 100 µM; in the assay with SF-268 CNS, greater than 100 µM.
For the molecule `CN(N)C(=O)NCCCl`, the TGI in the assay on K-562 leukemia, in the assay on HCT-15 colon, in the assay with NCI-H23 lung, with CAKI-1 renal, in the assay on HL-60(TB) leukemia and with SNB-19 CNS was greater than 100 µM in each case. Further, the TGI in the assay with NCI-H226 lung is 6.42 µM; in the assay with OVCAR-4 ovarian, greater than 100 µM; with A549 NSCLC it was greater than 100 µM; with SF-268 CNS it was greater than 100 µM.
